For 85 compounds, XC50 results are on record in ChEMBL document CHEMBL1157539, “Thousands of chemical starting points for antimalarial lead identification” (Nature, 2010).

This assay has as its system Plasmodium falciparum. In words: GSK_TCMDC: Inhibition of Plasmodium falciparum 3D7 in whole erythrocytes, using parasite LDH activity as an index of growth. It is filed as functional, organism-based.

`CN1CCN(CC(=O)Nc2cccc(-c3cccc(-c4nc5cc(F)ccc5[nH]4)c3)c2)CC1` yielded an XC50 (Plasmodium falciparum, 3D7) of 741 nM. In the case of `NC(=O)c1ccc2[nH]cc(C3CCN(CC4CCC(NC(=O)/C=C/c5ccc(Cl)c(Cl)c5)CC4)CC3)c2c1` (stereo unspecified), the XC50 came to 867 nM. This compound also returned an XC50 (Plasmodium falciparum, 3D7) of 761 nM. With `CCc1ccc(NC(=O)c2ccc(CN3CCCN(CCC(C)C)CC3)cc2)cc1`, the XC50 (Plasmodium falciparum, 3D7) turned out to be 632 nM. On the same count and under the same terms, the figure for `COc1cc(CCON2C(N)=NC(N)=NC2(C)C)cc(OC)c1OC` is 49.3 nM.

For the compound `Cc1nnnn1-c1ccc(C(=O)N2CCC3(CC2)CN(Cc2ccc(Cl)c(Cl)c2)C(=O)O3)cc1`, the XC50 (Plasmodium falciparum, 3D7) came to 181 nM. The same measure, in the same setting: the figure for `COc1cccc2c(Oc3ccccc3C)ccnc12` is 1230 nM. Same read-out and setting: the figure for `O=C(NCCCCCN1CCC(c2c[nH]c3ccccc23)CC1)Nc1cccc(I)c1` is 993 nM; for `COc1ccc(CN2CCC(CNCc3cccc(-c4ccccc4)c3)CC2)cc1` it is 236 nM; for `COc1ccc2nccc([C@@H](O)CN3CCC(NCCOc4cccc(F)c4F)CC3)c2c1` it is 244 nM. For the setting “Plasmodium falciparum, 3D7”, `O=C(Nc1cccc(C(F)(F)F)c1)c1cccc(S(=O)(=O)NC2CCN(CC3CCCCC3)C2)c1` (stereo unspecified) showed an XC50 of 588 nM. Still for that read-out and setting: the figure for `Nc1nc(N)c2c(ccc3c2ccn3CCCC2CCCNC2)n1` (stereo unspecified) is 898 nM; for `Cc1nc(C)c(-c2ccc(C(=O)c3ccccc3)cc2)c(O)c1Br` it is 778 nM; for `Cn1ccc2c3c(N)nc(N)nc3ccc21` it is 902 nM.

`Cc1nc(C)c(-c2ccc(Oc3ccc(Cl)c(Cl)c3)cc2)c(O)c1Br` gave an XC50 (Plasmodium falciparum, 3D7) of 304 nM. Same read-out and setting: the figure for `CC1CCCN1Cc1cccc(-c2ccc(C(=O)NCCOc3ccccc3)s2)c1` (stereo unspecified) is 925 nM; for `Cc1ccc(N2CCc3c(-c4cc5cccnc5nc4C)cc(C)nc32)c(Cl)c1` it is 577 nM.

For the compound `COc1c(C2CCN(CCN3CCC(CNC(=O)c4ccc(-c5ccc(C#N)cc5)cc4)CC3)CC2)ccc2c1CCCC2`, the XC50 (Plasmodium falciparum, 3D7) stood at 455 nM. On the same count and under the same terms, the figure for `O=C(/C=C/c1ccc(Cl)c(Cl)c1)NCCCCCN1CCC(CCNC(=O)/C=C/c2cc(C(F)(F)F)ccc2F)CC1` is 765 nM; for `COc1ccc2[nH]c(C)cc(=NN=Cc3cccc(F)c3)c2c1` it is 285 nM; for `Cc1cccc2nc(-c3ccc(-c4ccc(NC(=O)NCc5cccc(F)c5)cc4)cc3)[nH]c12` it is 1300 nM. Same read-out and setting: the figure for `N#Cc1c(Cl)cccc1Oc1ccc(S(=O)(=O)N2CCC(CN3CCC(c4c[nH]c5ccccc45)CC3)CC2)cc1` is 745 nM. Still for that read-out and setting: the figure for `Oc1ccccc1CNCC12CC3CC(CC(C3)C1)C2` is 279 nM. For `COc1ccc2nccc([C@@H](O)CN3CCC(NC(=O)/C=C/c4cccc(C)c4)CC3)c2c1`, under “Plasmodium falciparum, 3D7”, the XC50 turned out to be 1250 nM. On the same count and under the same terms, the figure for `Cc1ccccc1NC(=S)NC1CCN(CCCCCNC(=O)/C=C/c2ccc(Cl)c(Cl)c2)CC1` is 795 nM; for `Oc1ccc(CN2CCN(CCOC(c3ccccc3)c3ccccc3)CC2)cc1Cl` it is 806 nM; for `Cc1ccccc1C1CCN(C2CCC(NC(=O)c3cncc(-c4ccccc4)c3)CC2)CC1` (stereo unspecified) it is 930 nM.

For the setting “Plasmodium falciparum, 3D7”, `Cc1ccc(C(=O)Nc2cc(C(F)(F)F)cc(C(F)(F)F)c2)cc1[N+](=O)[O-]` came in with an XC50 of 927 nM. Still for that read-out and setting: the figure for `CCc1ccc(C2CCN(CCCCNC(=O)c3ccc(NC(=O)c4ccc(Cl)cc4)cc3)CC2)c(OC(C)=O)c1` is 145 nM; for `Oc1ccccc1CNCC(O)c1cc(C(F)(F)F)cc(C(F)(F)F)c1` (stereo unspecified) it is 184 nM. Same read-out and setting: the figure for `O=C(N[C@@H](Cc1ccccc1)C(=O)NC1CCCCCC1)c1ccc(O)c(-c2cccc(C(F)(F)F)c2)c1` is 735 nM.

For the setting “Plasmodium falciparum, 3D7”, `COc1cccc2c1CCN(CCN1CCC(NC(=O)c3ccc(-c4cccc(Cl)c4Cl)cc3)CC1)C2` registered an XC50 of 699 nM. Same read-out and setting: the figure for `O=C(NCc1cccc(F)c1)Nc1ccc(-c2ccc(-c3nc4cc(C(F)(F)F)ccc4[nH]3)cc2)cc1` is 769 nM; for `CCCC(C(=O)OCCNC)(c1ccccc1)c1ccccc1` it is 889 nM; for `COc1cc(C(=O)N2CCOC(CCN3CCC[C@H]3C(=O)Nc3ccccc3)(c3ccc(Cl)c(Cl)c3)C2)cc(OC)c1OC` (stereo partly specified) it is 733 nM. Same read-out and setting: the figure for `CCc1cn2c3c(cc(C(=O)N[C@@H](Cc4ccccc4)[C@H](O)CNCc4ccccc4C)cc13)N(C)S(=O)(=O)CC2` is 271 nM.

Regarding `Cc1cc(N[C@@H](CC(C)C)C(=O)NCCc2ccccc2)nc(NCC2CCCCC2)n1`, the XC50 (Plasmodium falciparum, 3D7) is 904 nM. Same read-out and setting: the figure for `O=C(/C=C/c1ccc(Cl)c(Cl)c1)NCCCCCN1CCC(NS(=O)(=O)c2cc(Cl)cc(Cl)c2)CC1` is 1240 nM; for `O=[N+]([O-])c1ccc(Nc2nc(N/N=C/c3ccc(-c4ccc([N+](=O)[O-])cc4)o3)nc(Nc3ccccc3)n2)cc1` it is 640 nM; for `O=C(Nc1cccc(-c2ccc(-c3nc4ccccc4[nH]3)cc2)c1)Nc1ccc2c(c1)OCO2` it is 671 nM. Still for that read-out and setting: the figure for `CC(C)c1ncc(-c2ccncc2)c(C2CCC(CNC(=O)c3cccnc3)CC2)n1` (stereo unspecified) is 776 nM; for `CN(C)CCOc1cc(NC(=O)Nc2ccc(Cl)cc2C(F)(F)F)ccc1I` it is 930 nM. Same read-out and setting: the figure for `Cc1cc(Nc2cc(Cl)cc(Cl)c2)nc(N)n1` is 1140 nM; for `O=C(CCc1cccc(O)c1)NCC(NCCCNc1cc(=O)c2ccccc2[nH]1)c1cc(Br)cc(Br)c1` (stereo unspecified) it is 1170 nM. In turn, `CC(C)(Oc1ccc(Cl)cc1)C(=O)NCCC1CCN(CCCCCNC(=O)/C=C/c2ccc(Cl)c(Cl)c2)CC1` came in with an XC50 (Plasmodium falciparum, 3D7) of 936 nM. Turning to `N=C(N)NC(=O)Nc1cc(Br)c(Cl)c(C(F)(F)F)c1`, the XC50 (Plasmodium falciparum, 3D7) worked out at 758 nM. On the same count and under the same terms, the figure for `CCc1c[nH]c2c(N3CCCS3(=O)=O)cc(C(=O)N[C@@H](Cc3ccccc3)[C@H](O)CNC(C)(C)CCCC(C)C)cc12` is 672 nM; for `COc1ccc(Nc2nc(NC3CCCC3)cc(-c3ccc(OC)cc3)n2)cc1` it is 1030 nM. `CN1CCN(CCCN(Cc2cccc(-c3cccc(CNC4CCCC4)c3)c2)C(=O)/C=C/c2ccccc2)CC1` displayed an XC50 (Plasmodium falciparum, 3D7) of 777 nM. Consider `Cc1cnn(-c2cccc(C(=O)NC3CCC(CCN4CCc5ccc(C#N)cc5CC4)CC3)c2)c1` (stereo unspecified), for which, for the setting “Plasmodium falciparum, 3D7”, the XC50 turned out to be 932 nM. For `Cc1cc(NCCC(=O)NCCOc2ccccc2)nc(NCCc2ccccc2)n1`, where the note is “Plasmodium falciparum, 3D7”, the XC50 turned out to be 1230 nM.

On to `CCN(CC)CCCn1c(N)c(-c2nc3ccccc3[nH]2)c2nc(C#N)c(C#N)nc21`, for which the XC50 (Plasmodium falciparum, 3D7) came to 267 nM.

The compound `COC(=O)c1ccc2nc(-c3cc(OC)c(O)c(C(=O)NC4CCN(Cc5ccccc5)CC4)c3)[nH]c2c1` showed an XC50 (Plasmodium falciparum, 3D7) of 1180 nM. In the case of `CC1(C)NC(N)=NC(=N)N1OCCCOc1cc(Cl)cc(Cl)c1`, for the setting “Plasmodium falciparum, 3D7”, the XC50 was found to be 3.2 nM. On the same count and under the same terms, the figure for `Cc1cc(C)c(NC(=O)N2CCCN(CCCCCNC(=O)/C=C/c3ccc(Cl)c(Cl)c3)CC2)c(C)c1` is 968 nM.

Turning to `O=C(NCc1cccc2ccccc12)c1ccc(CNC2CCN(Cc3ccccc3)CC2)cc1`, the XC50 (Plasmodium falciparum, 3D7) was determined as 838 nM.

The compound `COc1cc2c(cc1C(F)(F)F)N(C(=O)Nc1cc(F)c(F)c(-c3cccnc3)c1)CC2` displayed an XC50 (Plasmodium falciparum, 3D7) of 626 nM. The same measure, in the same setting: the figure for `O=C(C=Cc1cccs1)Nc1ccc(-c2nc3ccccc3[nH]2)cc1` is 1140 nM; for `Nc1ccc(-c2nc3cc(Cc4ccc5[nH]c(-c6ccc(N)cc6)nc5c4)ccc3[nH]2)cc1` it is 512 nM. Regarding `Cc1[nH]c2ccc([N+](=O)[O-])cc2c1C1=CCN(C)CC1`, the XC50 (Plasmodium falciparum, 3D7) came out at 335 nM. Under “Plasmodium falciparum, 3D7”, `CN1CCC(Oc2ccc(CN3CC[C@H](NC(=O)c4ccc(Cl)c(F)c4)C3)c3ccccc23)C1` (stereo partly specified) came in with an XC50 of 738 nM.

Compound `Cc1[nH]c2cc(F)ccc2c1C1=CCN(CCCCC2(C)C(=O)Nc3c(F)cccc32)CC1` (stereo unspecified) displayed an XC50 (Plasmodium falciparum, 3D7) of 397 nM. On the same count and under the same terms, the figure for `O=C(/C=C/c1ccc(Cl)c(Cl)c1)NC1CCN(Cc2cccc(O)c2)CC1` is 880 nM. In turn, `COc1ccc2nccc([C@@H](O)CN3CCC(NC(=O)/C=C/c4ccc(Cl)c(C(F)(F)F)c4)CC3)c2c1` came in with an XC50 (Plasmodium falciparum, 3D7) of 290 nM. `N#Cc1ccc(N(CCCO)Cc2ccccc2C(F)(F)F)cc1C(F)(F)F` returned an XC50 (Plasmodium falciparum, 3D7) of 978 nM. On the same count and under the same terms, the figure for `CC(C)Cc1nc2nc(N)nc(N)c2cc1C(C)C` is 226 nM; for `CN1C(=CC(=O)NC(=O)c2ccccc2)C(C)(C)c2ccccc21` it is 637 nM; for `CCOc1cc(Br)c(C(C)NC(=O)c2ccccc2)cc1OCC` (stereo unspecified) it is 861 nM.

The compound `COc1ccc2nccc([C@@H](O)CN3CCC(NCc4ccc5nsnc5c4)CC3)c2c1` registered an XC50 (Plasmodium falciparum, 3D7) of 958 nM. On the same count and under the same terms, the figure for `O=C(Nc1ccc2ccccc2n1)c1ccccc1-c1ccccc1` is 438 nM; for `COc1ccc(C[C@H](N)C(=O)N[C@H]2[C@@H](O)[C@H](n3cnc4c(N(C)C)ncnc43)O[C@@H]2CO)cc1` it is 299 nM. On the same count and under the same terms, the figure for `CCCN1CCC(c2c[nH]c3ccc(NC(=O)Nc4cccc(Cl)c4Cl)cc23)CC1` is 815 nM; for `O=C(Nc1ccncc1)c1cn(-c2ccccc2)nc1-c1cccs1` it is 977 nM. Still for that read-out and setting: the figure for `COc1ccc2nccc([C@@H](O)CN3CCC(NCc4cnc5c(c4)NC(=O)CS5)CC3)c2c1` is 860 nM.

Under “Plasmodium falciparum, 3D7”, `COc1cc(C=NNc2cc(C)nc3c(OC)cccc23)cc(OC)c1OC` returned an XC50 of 887 nM. The same measure, in the same setting: the figure for `CC1CCC(C[C@@H](C(=O)N[C@@H](CCC(=O)N2CCCCC2)C(=O)Nc2nccs2)[C@H](C(C)C)N(O)C=O)CC1` (stereo partly specified) is 615 nM; for `O=C(c1cccc(-c2noc(C(F)(F)F)n2)c1)N1CCN(c2nsc3ccccc23)CC1` it is 145 nM; for `CC(=O)N1CCN(c2ccc(NC(=O)c3oc(-c4ccccc4)nc3C(F)(F)F)cn2)CC1` it is 840 nM. Same read-out and setting: the figure for `C[C@H](Nc1nc(C(Oc2ccccc2)c2ccccc2)nc2[nH]ncc12)c1ccccc1` (stereo partly specified) is 484 nM; for `COc1ccc2nccc(N3CCN(CCNCc4ccc5c(n4)NC(=O)CS5)CC3)c2c1` it is 950 nM.

In turn, `CC(CN(C)C)C(=O)Nc1cccc(-c2ccc(-c3nc4ccccc4[nH]3)s2)c1` (stereo unspecified) gave an XC50 (Plasmodium falciparum, 3D7) of 743 nM. Same read-out and setting: the figure for `O=C(Nc1cccc(-c2nn3ncccc3c2-c2ccnc(Nc3cccnc3)n2)c1)c1c(F)cccc1F` is 528 nM; for `O=C(Nc1ccc(Cn2ncc(N3CCCNCC3)c(Cl)c2=O)cc1)Nc1ccc(C(F)(F)F)cc1` it is 731 nM; for `CN1CCN(CCCN(Cc2csc(-c3ccc(CNCc4ccccc4)cc3)n2)S(=O)(=O)c2ccccc2Cl)CC1` it is 876 nM. Still for that read-out and setting: the figure for `CCCN/C=N/c1cc(-c2csc(NC(=N)N)n2)cc([N+](=O)[O-])c1` is 1740 nM. On the same count and under the same terms, the figure for `N#Cc1ccc(N[C@@H](CC2CCCCC2)C(=O)NCc2cc(Cl)cc(Cl)c2)c2ccccc12` is 1100 nM.
